Measurements taken from patent publication US4160028A, “Substituted 2-cyclopropyl-chromones and pharmaceutical compositions and use thereof” (Carlo Erba S.p.A., priority 1977, dated 1979).

Test: seven days indicative acute toxicity after oral administration
Settings: rat, in vivo, rats
Procedure: Seven days indicative acute toxicity after oral administration was assessed for the compounds of the invention. For example, for the compound identified by the code K 13262, a LD50 >400 mg/kg in rats was obtained.

CCCc1c([C@@H]2C[C@H]2c2ccccc2)oc2ccc(C(=O)O)cc2c1=O (relative stereo) [K 13262, trans 6-carboxy-3-propyl-2-(2-phenyl-cyclopropyl)-chromone]
LD50 at 168 h: > 400 mg/kg
